Laboratory results: patent US4690940A, “Anti-hypertensive agents” (University of Miami, priority 1979, dated 1987)
Non-standard residues stand in square brackets, D forms with d. Residues, ends and D or L forms follow the SMILES beside them. No end group written: not given here. pGlu = O=C1CC[C@@H](C(=O)O)N1

Key:
[1] = tested on: ACE; details: competitive substrates; cited from earlier work
[2] = tested on: ACE purified from human urine; assay: ACE activity assay (hydrolysis of Benzoyl-GlyHisLeu), I50 determination; type: biochemical; details: in vitro, pH 8.0, 37° C
Description: These factors include the source of enzyme, its purity, the substrate used and its concentration, and the composition of the assay buffer. All I50 data reported herein have been performed with the same assay system and same enzyme (human urinary ACE) and with an approximately 1/2Km level of substrate and are therefore internally consistent.
ACE activity assay. […] To initiate the assay, 40 μl of enzyme and 10 μl of water or inhibitor dissolved in water were preincubated for five minutes at 37° C. […] To terminate the reaction, 1 ml of 0.1M HCl was added, following which 1 ml of ethyl acetate was added. The mixture was agitated on a rotary mixer and centrifuged briefly to separate the phases.
An aliquot, 500 μl, of the ethyl acetate layer was transferred to a liquid scintillation vial containing 10 ml of Riafluor, trademark New England Nuclear Corporation, Boston, Massachusetts. For determination of I50 values, enzyme activity in the presence of inhibitor at a series of different concentrations was compared to activity in the absence of inhibitor.

[3] = tested on: ACE; details: disulfide formed by dimerization of SQ 14,225; believed; cited from earlier work
[4] = tested on: Blood Pressure Response to 400 ng/kg of Angiotensin I; assay: Intravenous effectiveness: blood pressure response to angiotensin I in anesthetized rats; type: in vivo, rat; details: 400 ng/kg angiotensin I, -5 minutes
Description: (§1) Rats (210-290 g body weight) were fasted overnight and then anesthetized with intraperitoneal pentobarbital, 50-60 mg/kg. Tracheostomy was performed and the animals were ventilated mechanically. A cannula was inserted into a femoral vein for injection of angiotensin I, and a second cannula was inserted into a common carotid artery for direct measurement of arterial blood pressure. Heparin, 1,000 units, was injected via the femoral vein to prevent coagulation. Blood pressure was measured with a pressure transducer connected to a polygraph. The rats were injected with 400 ng/kg of angiotensin I in 20 μl of 0.9 g % NaCl; an amount of angiotensin I sufficient to raise mean arterial blood pressure by 39 mm Hg. […] At timed intervals, the effects of 400 ng/kg of angiotensin I on mean arterial blood pressure were tested.
At time intervals, the effects of angiotensin I, 400 ng/kg, on mean arterial blood pressure were tested.

[5] = tested on: Blood Pressure Response to 400 ng/kg of Angiotensin I; assay: Oral effectiveness: blood pressure response to angiotensin I in anesthetized rats; type: in vivo, rat; details: 400 ng/kg angiotensin I, before drug
Description: as §1

Molecule	Km relative to angiotensin I [1]	IC50 [2] [nM]	other results
C[C@H](NC(=O)[C@H](Cc1c[nH]c2ccccc12)NC(=O)[C@H](CCCCN)NC(=O)[C@@H]1CCC(=O)N1)C(=O)N1CCC[C@H]1C(=O)O [BPP5a, <GluLysTrpAlaPro] ([pGlu]KWAP-OH)	a lower Km than angiotensin I	–	–
C[C@H](CSC(=O)[C@H](Cc1ccccc1)NC(=O)[C@H](CCCCNC(=O)OC(C)(C)C)NC(=O)C1CCCC1)C(=O)N1CCC[C@H]1C(=O)O [Example 17]	–	25	–
C[C@H](CSC(=O)[C@H](Cc1ccccc1)NC(=O)[C@H](CCCCN)NC(=O)C1CCCC1)C(=O)N1CCC[C@H]1C(=O)O [Example 18, N^α -[3-(N^α -cyclopentylcarbonyl-L-lysyl-L-phenylalanylthio)2-D-methylpropanoyl]-L-proline]	–	15	–
C[C@H](CSSC[C@@H](C)C(=O)N1CCC[C@H]1C(=O)O)C(=O)N1CCC[C@H]1C(=O)O [disulfide]	–	–	inhibitory activity of dimer [3]: largely inactive as an inhibitor
DRVYIHPFHL [angiotensin I]	–	–	rise of mean arterial blood pressure by angiotensin I [4]: 39 mm Hg; rise of mean arterial blood pressure by angiotensin I [5]: 39 mm Hg
RPPGFSPFR [bradykinin]	a lower Km than angiotensin I	–	–
